Literature values, collected in PMC3066409 (Diabetic Medicine, 2010).
Where a name gives a salt, the structure may show the parent alone.

Settings: prescribing information

Row | SMILES | Drowsiness
1 | CCN(CC)CCNC(=O)c1cc(Cl)c(N)cc1OC [metoclopramide] | reported adverse effect
2 | Cc1nccn1CC1CCc2c(c3ccccc3n2C)C1=O (centres unmarked) [ondansetron, ondansetron hydrochloride] | reported adverse effect
